PubChem BioAssay AID652265 (Sanford-Burnham Center for Chemical Genomics, 2013)
The source made the active and inactive calls.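 The calls were made as follows: active = compounds whose half-maximal inhibitory concentration in the worm GFP to RFP ratio test is 5 micromolar or lower; inactive = the rest.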

Test system: C. elegans VP596 Pgst-4::GFP/RFP ratio, acrylamide, 24 h
Test: SKN-1 inhibitor analog confirmation in worms, SAR follow-up, whole organism, GFP/RFP fluorescence ratio, round 2 (AID 652265)

| Structure (SMILES) | IC50 |
| --- | --- |
| CCOc1cc(CN2CCN(C)CC2)cc(Cl)c1OCc1ccc(F)cc1 | 6010 nM (inactive) |
| COc1cc(CNC2CCCC2)cc(Cl)c1OCc1ccc(Cl)cc1 | 329 nM |
| COc1cc(CNC2CCCC2)cc(Br)c1OCc1ccc(Cl)cc1 | 771 nM |
| Cc1cc(CNC2CCCC2)cc(C)c1OCc1ccc(Cl)cc1 | 1140 nM |
| C#CCNCc1cc(Cl)c(OCc2ccc(Cl)cc2)c(OCC)c1 | 8140 nM (inactive) |
| CCOc1cc(CN(C(C)=O)C2CCCC2)cc(Cl)c1OCc1ccc(Cl)cc1 | > 64000 nM (inactive) |
| CCOc1cc(CNC2CC2)cc(Cl)c1OCc1ccc(Br)cc1 | 227 nM |
| C=CCNCc1cc(Cl)c(OCc2ccc(Cl)cc2)c(OCC)c1 | 12300 nM (inactive) |
| CCCNCc1cc(Cl)c(OCc2ccc(Cl)cc2)c(OCC)c1 | 8680 nM (inactive) |
| CCOc1cc(CN(C)C2CCCC2)cc(Cl)c1OCc1ccc(Cl)cc1 | 423 nM |
| Clc1ccc(COc2c(Cl)cc(CNC3CCCC3)cc2Cl)cc1 | 928 nM |
| CCOc1cc(CN2CCOCC2)cc(Cl)c1OCc1ccc(Cl)cc1 | 1740 nM |
| CCOc1cc(CNC2CCCC2)cc(Cl)c1OCc1ccc(Cl)cc1F | 863 nM |
| CCOc1cc(CNC2CC2)cc(Cl)c1OCc1ccc(Cl)cc1 | 512 nM |
| CCOc1cc(CNC2CC2)cc(Cl)c1OCc1ccc(Cl)cc1F | 516 nM |
| CCOc1cc(CNCC2CC2)cc(Cl)c1OCc1ccc(Cl)cc1 | 6730 nM (inactive) |
| CCOc1cc(CN2CCCC2)cc(Cl)c1OCc1ccc(F)cc1 | 21400 nM (inactive) |
| CCOc1cc(CN2CCCCC2)cc(Cl)c1OCc1ccc(F)cc1 | 432 nM |
| CCOc1cc(CNC2CCCC2)cc(Cl)c1OCc1ccc(Br)cc1 | 425 nM |
| COc1cc(CNC2CCCC2)cc(F)c1OCc1ccc(Cl)cc1 | 1220 nM |
| CCOc1cc(CN2CCCCC2)cc(Cl)c1OCc1ccc(Cl)cc1 | 495 nM |
| CCOc1cc(CNC2CC2)cc(Cl)c1OCc1ccc(C#N)cc1 | 1560 nM |
| CCOc1cc(CNC2CCCC2)cc(Cl)c1OCc1ccc(C#N)cc1 | 400 nM |
| CCOc1cc(CN2CCOCC2)cc(Cl)c1OCc1ccc(F)cc1 | 8890 nM (inactive) |
| CCOc1cc(CN2CCN(C)CC2)cc(Cl)c1OCc1ccc(Cl)cc1 | 3420 nM |
| CCOc1cc(CNC)cc(Cl)c1OCc1ccc(Cl)cc1 | > 64000 nM (inactive) |
| CCOc1cc(CN2CCCC2)cc(Cl)c1OCc1ccc(Cl)cc1 | 3960 nM |
